Laboratory results from patent publication US20230312646A1, “ANTIBACTERIAL PEPTIDES” (priority 2020, published 2023).
Read-outs that look alike come from different tables or passages of the source. Numbered stars: 1 amine (or outer) side, 2 acyl side, 3 side chain; on linkers, the order of the positions; unused ones are H or OH. Square brackets hold non-standard residues; d marks the D form. Peptide text beside a SMILES is read from it. * marks the point of attachment. NEtAsp = CCN([C@@H](CC(=O)[*:3])C(=O)[*:2])[*:1]; Acryloyl(3-(3-pyridyl),E) = O=C(/C=C/c1cccnc1)*; Phe(3,4-F2) = N[C@@H](Cc1ccc(F)c(F)c1)C(=O)O; Oic = O=C(O)[C@@H]1C[C@@H]2CCCC[C@@H]2N1; Cinnamoyl(4-F) = O=C(/C=C/c1ccc(F)cc1)*; Caffeoyl = O=C(/C=C/c1ccc(O)c(O)c1)*; X5 = O=C([C@@H]1CC(O)CN1[*:1])[*:2]; NMeCha = CN[C@@H](CC1CCCCC1)C(=O)O; Hydrocinnamoyl = O=C(CCc1ccccc1)*; NMeR = CN[C@@H](CCCNC(=N)N)C(=O)O; X2 = O=C(CN(Cc1ccccn1)[*:1])[*:2]; NMeF = CN[C@@H](Cc1ccccc1)C(=O)O; tBuAla = CC(C)(C)C[C@H](N)C(=O)O; NMeQ = CN[C@@H](CCC(N)=O)C(=O)O; Cha = N[C@@H](CC1CCCCC1)C(=O)O; NMeD = CN[C@@H](CC(=O)O)C(=O)O; NMeL = CN[C@@H](CC(C)C)C(=O)O; X8 = NC[C@H](Cc1ccccc1)N*; X6 = O=C(/C=C/c1ccccc1)*; Sar = CNCC(=O)O

Biological target: T1, Escherichia coli SC (^EcSC) (Escherichia coli, UniProt P0A988)
T1 construct: His tag (inferred from the pET15b vector and Ni-NTA purification) (N); made in house; host or cells: E. coli
T1 sequence (P0A988 whole entry): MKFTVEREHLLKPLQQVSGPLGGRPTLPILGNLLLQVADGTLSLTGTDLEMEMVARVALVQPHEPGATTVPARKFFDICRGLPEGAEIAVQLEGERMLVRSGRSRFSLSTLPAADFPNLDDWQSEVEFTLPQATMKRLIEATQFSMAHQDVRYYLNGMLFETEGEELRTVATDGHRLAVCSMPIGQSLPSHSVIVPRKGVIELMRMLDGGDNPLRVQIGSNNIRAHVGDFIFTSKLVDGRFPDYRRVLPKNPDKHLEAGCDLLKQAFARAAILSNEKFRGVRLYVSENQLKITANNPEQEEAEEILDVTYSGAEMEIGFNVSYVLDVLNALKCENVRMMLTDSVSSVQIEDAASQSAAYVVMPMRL
Assay: biochemical
Type: binding
Details: for Kd: Kd (nM); for Kd / ΔG (kcal/mol): ITC at 298.15 K (25° C.); for ΔG (kcal mol^-1): ITC at 25° C.; for koff, fold higher than for peptide 1 (P1): compared to P1
Description: The procedure has been described previously (Wolff, P.; Oliéric, V.; Briand, J. P.; Chaloin, O.; Dejaegere, A.; Dumas, P.; Ennifar, E.; Guichard, G.; Wagner, J.; Burnouf, D. Y., Structure-Based Design of Short Peptide Ligands Binding onto the E. coli Processivity Ring. J. Med. Chem. 2011, 54 (13), 4627-4637). Briefly, E.coli cells were transformed with plasmids pET15b containing the dnaN gene from E. coli and were grown in LB at 37° C. to OD 0.5, then induced by IPTG (0.1 mM) at 28° C. overnight. dnaN proteins fractions were first enriched on a Ni-NTA column, eluted with a histidine step (300 mM) and further purified on a Source Q column in buffer containing 20 mM Tris HCI pH 7.5, 0.5 mM EDTA and 10% (v/v) glycerol, using a gradient from 0 to 0.5 M NaCl. After a final ultracentrifugation (45 K, 1 h, 20° C.), soluble proteins were concentrated on a Centricon 30 K (Millipore) in the same buffer and stored at 4° C. in 2 M ammonium sulfate. Buffer exchange was performed on Centrikon 10 K at 4° C. before use and protein quality was assessed by DLS.
ITC experiments were performed using an iTC200 or a PEAQ-ITC instrument (Microcal Malvern Panalytical). Peptides (300 or 600 µM) were titrated at 25° C. by sequential injections (usually 2 µl each) into an SC solution (30 or 60 µM). Data were corrected for heat of injection by subtracting the signal of the titration of peptides into proteiN-free buffer solution (Hepes 10 mM pH 7.4, NaCl 0.15 M, EDTA 3 mM). Each titration was performed at least twice. Analyses of experimental data were performed following a classical treatment with the AFFINImeter software (https://www.affinimeter.com; S4S, Santiago de Compostela, Spain). In addition, kinetic information was obtained in some cases with kinITC as implemented in the software AFFINImeter.
All newly synthesized peptides were tested for their interaction with ^EcSC by ITC at 25° C. As a general rule, all thermodynamic profiles reveal an exothermic interaction, and a non-favorable entropic component. The resulting negative Gibb’s free energies characterize a spontaneous interaction. The analysis of raw data by the Affinimeter® software also gave access to kinetics rate constant of the interaction.

SMILES | Kd | kon (read-out: kon (M^-1.s^-1)) | ΔG (kcal/mol) | ΔG (kcal mol^-1) | kon (read-out: kon (M^-1 s^-1)) | fold lower Kd / affinity enhancement in comparison to peptide P27 (compared to P27) | koff, fold higher than for peptide 1 (P1)
CC(C)C[C@H](NC(=O)[C@H](CC(=O)O)NC(=O)[C@H](CC1CCCCC1)NC(=O)[C@H](CCC(N)=O)NC(=O)CNCc1ccccn1)C(=O)N[C@@H](Cc1ccccc1)C(=O)O [P8] (H-[X2]Q[Cha]DLF-OH) | 172 nM | 34000 M⁻¹ s⁻¹ |  |  |  |  | 
CC(C)C[C@H](NC(=O)[C@H](CC(=O)O)NC(=O)[C@H](CC1CCCCC1)NC(=O)[C@H](CCC(N)=O)NC(=O)CCc1ccccc1)C(=O)N[C@@H](Cc1ccccc1)C(=O)O [P19] (Hydrocinnamoyl-Q[Cha]DLF-OH) | 123 nM | 55000 M⁻¹ s⁻¹ |  |  |  |  | 
CC(C)C[C@H](NC(=O)[C@H](CC(=O)O)NC(=O)[C@H](CC1CCCCC1)NC(=O)[C@H](CCC(N)=O)NC(=O)/C=C/c1ccc(F)cc1)C(=O)N[C@@H](Cc1ccccc1)C(=O)O [P18] ({Cinnamoyl(4-F)}-Q[Cha]DLF-OH) | 144 nM |  |  |  |  |  | 
CC(=O)N[C@@H](CCC(N)=O)C(=O)N[C@@H](CC1CCCCC1)C(=O)N[C@@H](CC(=O)O)C(=O)N[C@@H](CC(C)C)C(=O)N[C@@H](Cc1ccccc1)C(N)=O [P26] (Ac-Q[Cha]DLF-NH2) | 268 nM | 33000 M⁻¹ s⁻¹ | -9.0 (± 0.1) kcal/mol |  |  |  | 
CC(=O)N[C@@H](CCC(N)=O)C(=O)N[C@@H](CC1CCCCC1)C(=O)N(C)[C@@H](CC(=O)O)C(=O)N[C@@H](CC(C)C)C(=O)N[C@@H](Cc1ccc(F)c(F)c1)C(=O)O [P40] (Ac-Q[Cha][NMeD]L[Phe(3,4-F2)]-OH) | 148 nM |  |  | -9.3 (± 0.02) kcal mol^-1 | 56000 M⁻¹ s⁻¹ |  | 
CC(C)C[C@H](NC(=O)[C@@H]1CCCN1C(=O)[C@H](CC(C)C)NC(=O)[C@H](CC(=O)O)NC(=O)[C@H](CC1CCCCC1)NC(=O)[C@H](CCC(N)=O)NC(=O)/C=C/c1ccccc1)C(=O)O [P43] (X6-Q[Cha]DLPL-OH) | 132 nM |  |  |  | 60000 M⁻¹ s⁻¹ |  | 
CC(=O)N(C)[C@@H](CCC(N)=O)C(=O)N[C@@H](CC1CCCCC1)C(=O)N[C@@H](CC(=O)O)C(=O)N[C@@H](CC(C)C)C(=O)N[C@@H](Cc1ccccc1)C(=O)O [P2] (Ac-[NMeQ][Cha]DLF-OH) | > 1000 nM | 21000 M⁻¹ s⁻¹ | -7.7 (± 0.2) kcal/mol |  |  |  | 
CC(C)C[C@H](NC(=O)[C@H](CC(=O)O)N(C)C(=O)[C@H](CC1CCCCC1)NC(=O)[C@H](CCC(N)=O)NC(=O)/C=C/c1ccc(F)cc1)C(=O)N[C@@H](Cc1ccc(F)c(F)c1)C(=O)O [P41] ({Cinnamoyl(4-F)}-Q[Cha][NMeD]L[Phe(3,4-F2)]-OH) | 99 nM |  |  |  | 51000 M⁻¹ s⁻¹ |  | 
CC(=O)N[C@@H](CCC(N)=O)C(=O)N[C@@H](CC1CCCCC1)C(=O)N[C@@H](CC(=O)O)C(=O)N[C@@H](CC(C)C)C(=O)N[C@H](CN)Cc1ccccc1 [P25] (Ac-Q[Cha]DL-X8) | 877 nM | 12000 M⁻¹ s⁻¹ | -8.27 (± 0.03) kcal/mol |  |  |  | 
CC(=O)N[C@@H](CCC(N)=O)C(=O)N[C@@H](CC1CCCCC1)C(=O)N[C@@H](CC(=O)O)C(=O)N[C@@H](CC(C)C)C(=O)N1CCC[C@H]1C(=O)N[C@@H](CC(C)C)C(=O)O [P32] (Ac-Q[Cha]DLPL-OH) | 182 nM | 57000 M⁻¹ s⁻¹ | -9.2 (± 0.2) kcal/mol |  |  | 4 fold | 
CC(=O)N[C@@H](CCC(N)=O)C(=O)N[C@@H](CC1CCCCC1)C(=O)N[C@@H](CC(=O)O)C(=O)N[C@@H](CC(C)C)C(=O)NCC(=O)N[C@@H](CC(C)C)C(=O)O [P27] (Ac-Q[Cha]DLGL-OH) | 682 nM | 26000 M⁻¹ s⁻¹ | -8.4 (± 0.1) kcal/mol |  |  |  | 
CC(=O)N[C@@H](CCC(N)=O)C(=O)N[C@@H](CC1CCCCC1)C(=O)N[C@@H](CC(=O)O)C(=O)N[C@@H](CC(C)C)C(=O)N(C)[C@@H](Cc1ccccc1)C(=O)O [P7] (Ac-Q[Cha]DL[NMeF]-OH) | > 1000 nM | 10000 M⁻¹ s⁻¹ | -7.1 (± 0.1) kcal/mol |  |  |  | 
CC(=O)N[C@@H](CCC(N)=O)C(=O)N[C@@H](CC1CCCCC1)C(=O)N[C@@H](CC(=O)O)C(=O)N[C@@H](CC(C)C)C(=O)NCC(=O)N[C@@H](CC(C)(C)C)C(=O)O [P28] (Ac-Q[Cha]DLG[tBuAla]-OH) | 2690 nM | 11000 M⁻¹ s⁻¹ | -7.60 (± 0.06) kcal/mol |  |  |  | 
CC(=O)N[C@@H](CCC(N)=O)C(=O)N[C@@H](CC1CCCCC1)C(=O)N(C)[C@@H](CC(=O)O)C(=O)N[C@@H](CC(C)C)C(=O)N1CCC[C@H]1C(=O)N[C@@H](CC(C)C)C(=O)O [P42] (Ac-Q[Cha][NMeD]LPL-OH) | 263 nM |  |  | -9.0 (± 0.2) kcal mol^-1 | 100000 M⁻¹ s⁻¹ |  | 
CC(=O)N[C@@H](CCC(N)=O)C(=O)N(C)[C@@H](CC1CCCCC1)C(=O)N[C@@H](CC(=O)O)C(=O)N[C@@H](CC(C)C)C(=O)N[C@@H](Cc1ccccc1)C(=O)O [P3] (Ac-Q[NMeCha]DLF-OH) | > 1000 nM |  | -6.0 (± 0.1) kcal/mol |  |  |  | 
CC(=O)N[C@@H](CCC(N)=O)C(=O)N[C@@H](CC1CCCCC1)C(=O)N[C@@H](CC(=O)O)C(=O)N(C)[C@@H](CC(C)C)C(=O)N[C@@H](Cc1ccccc1)C(=O)O [P6] (Ac-Q[Cha]D[NMeL]F-OH) | > 1000 nM |  | -5.2 (± 0.2) kcal/mol |  |  |  | 
CC(=O)N[C@@H](CCCNC(=N)N)C(=O)N[C@@H](CCC(N)=O)C(=O)N[C@@H](CC1CCCCC1)C(=O)N[C@@H](CC(=O)O)C(=O)N[C@@H](CC(C)C)C(=O)N[C@@H](Cc1ccccc1)C(=O)O [P12] (Ac-RQ[Cha]DLF-OH) | 498 nM | 37000 M⁻¹ s⁻¹ | -8.60 (± 0.08) kcal/mol |  |  |  | 2.5 fold
CC(C)C[C@H](NC(=O)[C@H](CC(=O)O)N(C)C(=O)[C@H](CC1CCCCC1)NC(=O)[C@H](CCC(N)=O)NC(=O)/C=C/c1cccnc1)C(=O)N1[C@H](C(=O)N[C@@H](Cc2ccccc2)C(=O)O)C[C@@H]2CCCC[C@@H]21 [P49] ({Acryloyl(3-(3-pyridyl),E)}-Q[Cha][NMeD]L[Oic]F-OH) | 118 nM |  |  | -9.5 (± 0.1) kcal mol^-1 | 47000 M⁻¹ s⁻¹ |  | 
CCN(C(=O)[C@H](CC1CCCCC1)NC(=O)[C@H](CCC(N)=O)NC(C)=O)[C@@H](CC(=O)O)C(=O)N[C@@H](CC(C)C)C(=O)N[C@@H](Cc1ccccc1)C(=O)O [P5] (Ac-Q[Cha][NEtAsp]LF-OH) | 523 nM | 28800 M⁻¹ s⁻¹ | -8.57 (± 0.07) kcal/mol |  |  |  | 
CC(C)C[C@H](NC(=O)[C@H](CC(=O)O)NC(=O)[C@H](CC1CCCCC1)NC(=O)[C@H](CCC(N)=O)NC(=O)/C=C/c1ccc(O)c(O)c1)C(=O)N[C@@H](Cc1ccccc1)C(=O)O [P21] (Caffeoyl-Q[Cha]DLF-OH) | 99 nM | 46000 M⁻¹ s⁻¹ |  |  |  |  | 
CC(C)C[C@H](NC(=O)[C@H](CC(=O)O)N(C)C(=O)[C@H](CC1CCCCC1)NC(=O)[C@H](CCC(N)=O)NC(=O)/C=C/c1cccnc1)C(=O)N1CCC[C@H]1C(=O)N[C@@H](Cc1ccccc1)C(=O)O [P46] ({Acryloyl(3-(3-pyridyl),E)}-Q[Cha][NMeD]LPF-OH) | 36 nM |  |  | -10.2 (± 0.1) kcal mol^-1 | 140000 M⁻¹ s⁻¹ |  | 
CC(=O)N(C)[C@@H](CCCNC(=N)N)C(=O)N[C@@H](CCC(N)=O)C(=O)N[C@@H](CC1CCCCC1)C(=O)N[C@@H](CC(=O)O)C(=O)N[C@@H](CC(C)C)C(=O)N[C@@H](Cc1ccccc1)C(=O)O [P13] (Ac-[NMeR]Q[Cha]DLF-OH) | 2130 nM | 21000 M⁻¹ s⁻¹ | -7.7 (± 0.1) kcal/mol |  |  |  | 4 fold
CC(=O)N[C@@H](CCC(N)=O)C(=O)N[C@@H](CC1CCCCC1)C(=O)N[C@@H](CC(=O)O)C(=O)N[C@@H](CC(C)C)C(=O)N1CC(O)C[C@H]1C(=O)N[C@@H](CC(C)C)C(=O)O (stereo partly drawn) [P33] (Ac-Q[Cha]DL[X5]L-OH) | 369 nM | 44000 M⁻¹ s⁻¹ | -8.8 (± 0.2) kcal/mol |  |  |  | 
CC(=O)N[C@@H](CCC(N)=O)C(=O)N[C@@H](CC1CCCCC1)C(=O)N(C)[C@@H](CC(=O)O)C(=O)N[C@@H](CC(C)C)C(=O)N1CCC[C@H]1C(=O)N[C@@H](Cc1ccccc1)C(=O)O [P45] (Ac-Q[Cha][NMeD]LPF-OH) | 81 nM |  |  | -9.7 (± 0.2) kcal mol^-1 | 60000 M⁻¹ s⁻¹ |  | 
CC(=O)N[C@@H](CCC(N)=O)C(=O)N[C@@H](CC1CCCCC1)C(=O)N[C@@H](CC(=O)O)C(=O)N[C@@H](CC(C)C)C(=O)N(C)CC(=O)N[C@@H](CC(C)C)C(=O)O [P30] (Ac-Q[Cha]DL[Sar]L-OH) | 583 nM | 40000 M⁻¹ s⁻¹ | -8.5 (± 0.2) kcal/mol |  |  |  | 
